Source: ChEMBL document CHEMBL3124848, “Crystal structures of human transthyretin complexed with glabridin” (J Med Chem, 2014)

The compounds below were run against Transthyretin (Homo sapiens, UniProt P02766, V50M) (assay: Inhibition of transthyretin V30M mutant (unknown origin) expressed in Escherichia coli assessed as inhibition of sodium acetate-mediated aggregation preincubated for 30 mins followed by sodium acetate addition measured after 96 hrs by thioflavin T assay).

Row | SMILES | IC50
1 | O=c1c(-c2ccc(O)cc2)coc2cc(O)ccc12 [DAIDZEIN] | 16 µM
2 | O=c1c(-c2ccc(O)cc2)coc2cc(O)cc(O)c12 [GENISTEIN] | 7.8 µM
3 | Oc1ccc([C@@H]2COc3cc(O)ccc3C2)cc1 | 13 µM
4 | O=c1cc(-c2ccc(O)c(O)c2)oc2cc(O)cc(O)c12 [LUTEOLIN] | 6.4 µM
5 | CC1(C)C=Cc2c(ccc3c2OC[C@@H](c2ccc(O)cc2O)C3)O1 [GLABRIDIN] | 6.4 µM
